The source made the active and inactive calls. The calls are words filed in the database; no cut-off is given here.
Experiments:
A2780 = assay: Potentiation of olaparib-induced antitumor activity against human A2780 cells xenografted in BALB/c mouse assessed as decrease in tumor weight at 15 mg/kg, ip co-administered with olaparib for 2 weeks; type: functional, organism-based
SK-OV-3 = assay: Effect on FHL1 mRNA expression in human SK-OV-3 cells at 5 to 20 uM by real-time PCR analysis; type: functional, cell-based; settings: dose 5-20 µM

SMILES: CC[C@]12C=CCN3CC[C@]4(C(=C(C(=O)OC)C1)Nc1ccccc14)[C@@H]32 [TABERSONINE]
- Activity (A2780): Active
- Activity (SK-OV-3): inactive

Reference: ChEMBL document CHEMBL5385929, “Tabersonine Enhances Olaparib Sensitivity through FHL1-Mediated Epithelial-Mesenchymal Transition in an Ovarian Tumor” (J Nat Prod, 2024)
